Test results taken from US20030007938A1, “Methods for treating fingernails and toenails” (priority 2001, published 2003).
Where “and” joins values, the source holds several entries; their conditions need not be identical. Equal entries are not always repeated.

Tested on: index fingernail and cuticle
Experiment: Fingernail growth of the index finger in human volunteers, daily topical treatment for four weeks
Assay type: in vivo
Description: This Example describes the use of a cream prepared with the complexes of peptone with copper (II) to improve nail growth in humans. The copper soy peptone complex (0.3% copper ion and 4% dry weight of peptone) was mixed into an application cream containing 55% (by weight) aloe vera gel, 12% squalane, 12% glycerol stearate, 5% PEG-100, 4% cetyl alcohol and 0.3% retinol. The placebo-treated control nails were treated with a similar cream that contained no copper-peptide complex. For testing experiments, the fingernail growth rates of the index finger were used as a measurement. In the first set of experiments, the copper-peptide complex was applied to the index fingernail and cuticle on the right hand while the left hand nail was untreated and used as a control. In the second set of experiments with different human volunteers, the copper-peptide cream was applied to the index fingernail and cuticle on the left hand while the right hand nail was treated with the placebo cream and used as a control. Nails were treated daily for four weeks. Nail length was measured from the end of the nail bed to the tip of the nail at its center by pushing a small plastic ruler under the nail and firmly against the nail bed. […] The effect of nail growth stimulation was approximately similar if either the right hand treated group or the left hand treated group was used. For testing experiments, the fingernail growth rates of the index finger were used as a measurement. In the experiments, the copper-peptide complex was applied to the index fingernail and cuticle on the right hand while the left hand nail was treated with the placebo cream and used as a control. Nails were treated daily for four weeks. Nail length was measured from the end of the nail bed to the tip of the nail at its center by pushing a small plastic ruler under the nail and firmly against the nail bed. […]

Substance: GHK-Copper (II) [GHK-Copper complex]
- Finger Nail Growth, Right Hand Treated (GHK-Copper (II) cream for four weeks, one value per person, left hand placebo control): 3.1 millimeters in four weeks and 3.5 millimeters in four weeks and 3.7 millimeters in four weeks and 3.4 millimeters in four weeks and 2.9 millimeters in four weeks
- Visual inspection of treated nails versus control hand (four weeks, readily apparent in all cases): appeared to be longer
- Nail growth of treated nails compared with control nails (summary in words of the table, four weeks): better nail growth
